Data on 34 compounds can be found in patent publication US20060100245A1, “Substituted biphenyl-4-carboxylic acid arylamide analogues” (Neurogen Corporation, priority 2002, published 2006).

Read-outs that look alike come from different tables or passages of the source.

This assay addresses T1, human capsaicin receptor (VR1) (Homo sapiens, UniProt Q8NER1).
T1 construct: transfected with the pBK-CMV expression construct encoding the full length human capsaicin receptor; expressed in transfected cells
Put plainly: Capsaicin receptor binding assay ([3H]RTX competition). The source says:
This Example illustrates the preparation of VR1-transfected cells and membrane preparations for use in binding assays (Example 5) and functional assays (Example 6).
A cDNA encoding full length human capsaicin receptor (SEQ ID NO: 1, 2 or 3 of U.S. Pat. No. 6,482,611) was subcloned in the plasmid pBK-CMV (Stratagene, La Jolla, Calif.) for recombinant expression in mammalian cells.
Human embryonic kidney (HEK293) cells were transfected with the pBK-CMV expression construct encoding the full length human capsaicin receptor using standard methods. The transfected cells were selected for two weeks in media containing G418 ([…]) to obtain a pool of stably transfected cells. Independent clones were isolated from this pool by limiting dilution to obtain clonal stable cell lines for use in subsequent experiments.
For radioligand binding experiments, cells were seeded in T175 cell culture flasks in media without antibiotics and grown to approximately 90% confluency. The flasks were then washed with PBS and harvested in PBS containing 5 mM EDTA. The cells were pelleted by gentle centrifugation and stored at −80° C. until assayed.
Previously frozen cells were disrupted with the aid of a tissue homogenizer in ice-cold HEPES homogenization buffer (5mM KCl 5, 5.8 mM NaCl, 0.75 mM CaCl2, 2 mM MgCl2, 320 mM sucrose, and 10 mM HEPES pH 7.4). Tissue homogenates were first centrifuged for 10 minutes at 1000×g (4° C.) to remove the nuclear fraction and debris, and then the supernatant from the first centrifugation is further centrifuged for 30 minutes at 35,000×g (4° C.) to obtain a partially purified membrane fraction. Membranes were resuspended in the HEPES homogenization buffer prior to the assay. An aliquot of this membrane homogenate is used to determine protein concentration via the Bradford method (BIO-RAD Protein Assay Kit, #500-0001, BIO-RAD, Hercules, Calif.).
This Example illustrates a representative assay of capsaicin receptor binding that may be used to determine the binding affinity of compounds for the capsaicin (VR1) receptor.
Binding studies with [^3H] Resiniferatoxin (RTX) are carried out essentially as described by Szallasi and Blumberg (1992) J. Pharmacol. Exp. Ter. 262: 883-888. In this protocol, non-specific RTX binding is reduced by adding bovine alpha, acid glycoprotein (100 μg per tube) after the binding reaction has been terminated.
[^3H] RTX (37 Ci/mmol) is synthesized by and obtained from the Chemical Synthesis and Analysis Laboratory, National Cancer Institute-Frederick Cancer Research and Development Center, Frederick, Md. [^3H] RTX may also be obtained from commercial vendors (e.g., Amersham Pharmacia Biotech, Inc.; Piscataway, N.J.).
The membrane homogenate of Example 4 is centrifuged as before and resuspended to a protein concentration of 333 μg/ml in homogenization buffer. Binding assay mixtures are set up on ice and contain [^3H]JRTX (specific activity 2200 mCi/ml), 2 μl non-radioactive test compound, 0.25 mg/ml bovine serum albumin (Cohn fraction V), and 5×10^4−1×10^5 VR1-transfected cells. The final volume is adjusted to 500 μl (for competition binding assays) or 1,000 μl (for saturation binding assays) with the ice-cold HEPES homogenization buffer solution (pH 7.4) described above. Non-specific binding is defined as that occurring in the presence of 1 μM non-radioactive RTX (Alexis Corp.; San Diego, Calif.). For saturation binding, [^3H]RTX is added in the concentration range of […], using 1 to 2 dilutions. Typically 11 concentration points are collected per saturation binding curve.
Competition binding assays are performed in the presence of 60 pM [^3H]RTX and various concentrations of test compound. The binding reactions are initiated by transferring the assay mixtures into a 37° C. water bath and are terminated following a 60 minute incubation period by cooling the tubes on ice.

T1 sequence (Q8NER1 whole entry): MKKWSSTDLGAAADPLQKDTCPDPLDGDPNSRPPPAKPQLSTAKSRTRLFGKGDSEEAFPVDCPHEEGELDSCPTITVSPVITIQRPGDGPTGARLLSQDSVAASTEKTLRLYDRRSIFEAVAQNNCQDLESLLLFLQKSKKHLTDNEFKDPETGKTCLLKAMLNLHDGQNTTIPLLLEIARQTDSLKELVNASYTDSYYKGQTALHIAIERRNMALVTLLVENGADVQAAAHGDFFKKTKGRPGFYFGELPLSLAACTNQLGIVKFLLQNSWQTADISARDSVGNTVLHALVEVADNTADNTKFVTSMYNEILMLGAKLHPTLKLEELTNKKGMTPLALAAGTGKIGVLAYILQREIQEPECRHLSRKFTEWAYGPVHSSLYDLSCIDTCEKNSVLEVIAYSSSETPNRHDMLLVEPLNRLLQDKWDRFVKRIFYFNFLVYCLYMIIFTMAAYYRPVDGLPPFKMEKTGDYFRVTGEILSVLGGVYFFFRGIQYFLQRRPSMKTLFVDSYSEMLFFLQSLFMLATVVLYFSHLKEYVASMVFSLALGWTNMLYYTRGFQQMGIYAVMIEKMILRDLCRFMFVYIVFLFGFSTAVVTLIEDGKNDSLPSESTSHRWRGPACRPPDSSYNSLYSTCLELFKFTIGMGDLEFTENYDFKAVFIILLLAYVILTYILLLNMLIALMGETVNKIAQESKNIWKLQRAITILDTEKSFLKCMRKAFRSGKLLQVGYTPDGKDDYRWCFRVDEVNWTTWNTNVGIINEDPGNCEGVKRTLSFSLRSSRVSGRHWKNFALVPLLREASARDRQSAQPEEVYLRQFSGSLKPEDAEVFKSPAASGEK

In general, Ki refers to the equilibrium dissociation constant of an inhibitor or competing ligand from its target. On to `CCCc1ccc(NC(=O)c2ccc(-c3ccccc3C)nc2)cc1` [Compound 389, N-(4-Propyl-phenyl)-6-o-tolyl-nicotinamide], for which the Ki (read-out: Ki) is less than 1000 nM.
As for `CCCCc1ccc(NC(=O)c2ccc(-c3ccccc3C)nc2)cc1` [Compound 343, N-(4-Butyl-phenyl)-6-o-tolyl-nicotinamide], the inhibition constant Ki (read-out: Ki) is less than 1000 nM.
For the compound `O=C(Nc1ccc(Br)c(Cl)c1)c1ccc(-c2ccc(F)cc2)nc1` [Compound 320, N-(4-Bromo-3-chloro-phenyl)-6-(4-fluoro-phenyl)-nicotinamide], the inhibition constant (Ki) (read-out: Ki) is less than 1000 nM.
For `COc1cccc(-c2ccc(C(=O)Nc3ccc4c(c3)CCC4)cn2)c1` [Compound 463, N-Indan-5-yl-6-(3-methoxy-phenyl)-nicotinamide], the Ki (read-out: Ki) was less than 1000 nM.
Consider `CCCN1CCCCC1c1ccc(C(=O)Nc2ccc(C(C)(C)C)cc2)cc1` (stereo not shown) [Compound 399, N-(4-tert-Butyl-phenyl)-4-(1-propyl-piperidin-2-yl)-benzamide], for which the inhibition constant Ki (read-out: Ki) was less than 1000 nM.
On to `COc1ccccc1-c1ccc(C(=O)Nc2ccc(C(F)(F)F)cc2)cn1` [Compound 99, 6-(2-Methoxy-phenyl)-N-(4-trifluoromethyl-phenyl)-nicotinamide], for which, for the setting “read-out: Ki”, the Ki was less than 1000 nM.
`CCC1(c2ccc(NC(=O)c3ccc(-c4ncccc4F)cc3)cc2)CCC(=O)NC1=O` (stereo not shown) [Compound 458, N-[4-(3-Ethyl-2,6-dioxo-piperidin-3-yl)-phenyl]-4-(3-fluoro-pyridin-2-yl)-benzamide]: the inhibitory constant (Ki) was less than 1000 nM.
With `Cc1ccc(NC(=O)c2ccc(-c3ccccc3)nc2)cc1C` [Compound 249, N-(3,4-Dimethyl-phenyl)-6-phenyl-nicotinamide], the inhibition constant Ki (read-out: Ki) is less than 1000 nM.
As for `O=C(Nc1ccc(C(F)(F)F)cc1)c1ccc(-c2ncccc2C(F)(F)F)cc1O` [Compound 16, 2-Hydroxy-N-(4-trifluoromethyl-phenyl)-4-(3-trifluoromethyl-pyridin-2-yl)-benzamide], the Ki (read-out: Ki) was less than 1000 nM.
For the compound `Cc1ccccc1-c1ccc(C(=O)Nc2ccc(Oc3ccc(Cl)cc3)cc2)cn1` [Compound 459, N-[4-(4-Chloro-phenoxy)-phenyl]-6-o-tolyl-nicotinamide], the Ki (read-out: Ki) is less than 1000 nM.
Regarding `CC(C)(C)c1ccc(NC(=O)c2ccc(-c3ccccn3)nc2)cc1` [Compound 9, [2,2′]Bipyridinyl-5-carboxylic acid (4-tert-butyl-phenyl)-amide], where the note is “read-out: Ki”, the Ki is less than 1000 nM.
Still for that read-out and setting: the same measure for `O=C(Nc1ccc(C(F)(F)F)cc1)c1ccc(-c2cccc(OC(F)(F)F)c2)nc1` [Compound 135, N-(4-Trifluoromethyl-phenyl)-6-(3-Trifluoromethoxy-phenyl)-nicotinamide]: less than 1000 nM.
Regarding `COc1cc(NC(=O)c2ccc(-c3ccccc3)cc2)ccc1Cl` [Compound 189, Biphenyl-4-carboxylic acid (4-chloro-3-methoxy-phenyl)-amide], the Ki (read-out: Ki) is less than 1000 nM.
For the compound `CC(C)(C)c1ccc(NC(=O)c2ccc(-c3ccncc3[N+](=O)[O-])cc2)cc1` [Compound 416, N-(4-tert-Butyl-phenyl)-4-(3-nitro-pyridin-4-yl)-benzamide], the Ki (read-out: Ki) is less than 1000 nM.
In the case of `CC(C)(C)c1ccc(NC(=O)c2ccc(-c3ncccc3C(F)(F)F)cc2N)cc1` [Compound 12, 2-Amino-N-(4-tert-butyl-phenyl)-4-(3-trifluoromethyl-pyridin-2-yl)-benzamide], the Ki (read-out: Ki) is less than 1000 nM.
With `CC(C)(C)c1ccc(NC(=O)c2ccc(-c3ccccc3CO)nc2)cc1` [Compound 444, N-(4-tert-Butyl-phenyl)-6-(2-hydroxymethyl-phenyl)-nicotinamide], under “read-out: Ki”, the Ki is less than 1000 nM.
With `Cc1cccc(-c2ccc(C(=O)Nc3ccc(C(C)C)cc3)cn2)c1` [Compound 383, N-(4-Isopropyl-phenyl)-6-m-tolyl-nicotinamide], the Ki (read-out: Ki) was less than 1000 nM.
On the same count and under the same terms, the same measure for `Cc1ccc(NC(=O)c2ccc(-c3cccc(F)c3)nc2)cc1F` [Compound 266, N-(3-Fluoro-4-methyl-phenyl)-6-(3-fluoro-phenyl)-nicotinamide]: less than 1000 nM; for `O=C(Nc1ccccc1C(F)(F)F)c1ccc(-c2ccccc2Cl)nc1` [Compound 64, 6-(2-Chloro-phenyl)-N-(2-trifluoromethyl-phenyl)-nicotinamide]: less than 1000 nM; for `Cc1ccc(-c2ccc(C(=O)Nc3ccc4c(c3)CCC4)cn2)cc1C` [Compound 109, 6-(3,4-Dimethyl-phenyl)-N-indan-5-yl-nicotinamide]: less than 1000 nM.
As to `COc1cccc(NC(=O)c2ccc(-c3cccc(C(C)C)c3)nc2)c1` [Compound 131, 6-(3-Isopropyl-phenyl)-N-(3-methoxy-phenyl)-nicotinamide], the inhibitory constant (Ki) (read-out: Ki) was less than 1000 nM.
With `Cc1cc(C)cc(-c2ccc(C(=O)Nc3ccc(C)c(F)c3)cn2)c1` [Compound 110, 6-(3,5-Dimethyl-phenyl)-N-(3-fluoro-4-methyl-phenyl)-nicotinamide], the Ki (read-out: Ki) is less than 1000 nM.
`CCS(=O)(=O)Nc1cccnc1-c1ccc(C(=O)Nc2ccc(C(C)(C)C)cc2)cc1` [Compound 408, N-(4-tert-Butyl-phenyl)-4-(3-ethanesulfonylamino-pyridin-2-yl)-benzamide]: the Ki (read-out: Ki) is less than 1000 nM.
Same read-out and setting: the same measure for `CCOc1cccc(-c2ccc(C(=O)Nc3ccc(Br)c(Cl)c3)cn2)c1` [Compound 317, N-(4-Bromo-3-chloro-phenyl)-6-(3-ethoxy-phenyl)-nicotinamide]: less than 1000 nM; for `O=C(Nc1ccc(F)c(F)c1)c1ccc(-c2ncccc2F)cc1` [Compound 214, N-(3,4-Difluoro-phenyl)-4-(3-fluoro-pyridin-2-yl)-benzamide]: less than 1000 nM; for `CC(C)(C)c1ccc(NC(=O)c2ccc(-c3ncccc3NC3CCCC3)cc2)cc1` [Compound 406, N-(4-tert-Butyl-phenyl)-4-(3-cyclopentylamino-pyridin-2-yl)-benzamide]: less than 1000 nM.
For the compound `Nc1cc(-c2ncccc2C(F)(F)F)ccc1C(=O)Nc1ccc(C(F)(F)F)cc1` [Compound 13, 2-Amino-N-(4-trifluoromethyl-phenyl)-4-(3-trifluoromethyl-pyridin-2-yl)-benzamide], the Ki (read-out: Ki) is less than 1000 nM.
For the compound `COc1cccc(-c2ccc(C(=O)Nc3ccc(C(C)(C)C)cc3)cn2)c1` [Compound 449, N-(4-tert-Butyl-phenyl)-6-(3-methoxy-phenyl)-nicotinamide], under “read-out: Ki”, the inhibitory constant (Ki) was less than 1000 nM.
Still for that read-out and setting: the figure for `CS(=O)(=O)N(c1cccnc1-c1ccc(C(=O)Nc2ccc(C(F)(F)F)cn2)cc1)S(C)(=O)=O` [Compound 457, N-(5-Trifluoromethyl-pyridin-2-yl)-4-[3-(N,N-dimethanesulfonyl)amino-pyndin-2-yl]-benzamide] is less than 1000 nM; for `COc1ccc(NC(=O)c2ccc(-c3ccccc3F)nc2)cc1OC` [Compound 232, N-(3,4-Dimethoxy-phenyl)-6-(2-fluoro-phenyl)-nicotinamide] it is less than 1000 nM; for `O=C(Nc1ccc(C(F)(F)F)cn1)c1ccc(-c2ncccc2Cl)cc1` [Compound 28, 4-(3-Chloro-pyridin-2-yl)-N-(5-trifluoromethyl-pyridin-2-yl)-benzamide] it is less than 1000 nM.
With `CC(C)(C)c1ccc(NC(=O)c2ccc(-c3ccncc3N(S(C)(=O)=O)S(C)(=O)=O)cc2)cc1` [Compound 427, N-(4-tert-Butyl-phenyl)-4-[3-(N,N-dimethanesulfonyl)amino-pyridin-4-yl]-benzamide], for the setting “read-out: Ki”, the Ki was less than 1000 nM.
Consider `CC(C)(C)c1ccc(NC(=O)c2ccc(-c3ccc(F)cc3F)nc2)cc1` [Compound 437, N-(4-tert-Butyl-phenyl)-6-(2,4-difluoro-phenyl)-nicotinamide], for which, where the note is “read-out: Ki”, the Ki is less than 1000 nM.
With `CCOc1cccc(-c2ccc(C(=O)Nc3ccc4c(c3)CCC4)cn2)c1` [Compound 124, 6-(3-Ethoxy-phenyl)-N-indan-5-yl-nicotinamide], the Ki (read-out: Ki) was less than 1000 nM.
